Assay: Solubility of N-cyanomethyl-4-(trifluoromethyl)nicotinamide in salt solutions (HPLC of filtrate)
Format: physicochemical
Conditions: for Amount of N-cyanomethyl-4-(trifluoromethyl)nicotinamide in Salt Solutions After Filtration: about 18 hours at ambient temperature
Description: In order to determine the effectiveness of a salt to decrease the solubility of N-cyanomethyl-4-(trifluoromethyl)nicotinamide in aqueous solutions, the following tests were conducted:
A salt solution consisting of two grams of a salt dissolved in ten grams of water was prepared. Fifty milligrams of N-cyanomethyl-4-(trifluoromethyl)nicotinamide was added and the resulting mixture was subjected to sonication until all the N-cyanomethyl-4-(trifluoromethyl)nicotinamide had dissolved. The solutions were allowed to stand at ambient temperature for about 18 hours. Each solution was filtered and the filtrate was analyzed by HPLC to determine the amount of N-cyanomethyl-4-(trifluoromethyl)nicotinamide which remained dissolved in the water. An experiment in which no salt was added was included as a control.

N#CCNC(=O)c1cnccc1C(F)(F)F [N-cyanomethyl-4-(trifluoromethyl)nicotinamide]
Amount of N-cyanomethyl-4-(trifluoromethyl)nicotinamide in Salt Solutions After Filtration (Control, no salt, 50 mg added to 10 g water): 50.0 mg | Amount of N-cyanomethyl-4-(trifluoromethyl)nicotinamide in Salt Solutions After Filtration (Magnesium Sulfate (Anhydrous), 2 g in 10 g water, 50 mg added): 7.0 mg | Amount of N-cyanomethyl-4-(trifluoromethyl)nicotinamide in Salt Solutions After Filtration (Sodium Sulfate, 2 g in 10 g water, 50 mg added): 10.0 mg | Reduction of solubility in an aqueous solution (concentration of 20% magnesium sulfate): over 90% | Reduction of solubility in an aqueous solution (sodium sulfate): 80%

— patent US11006630B2, “Stable suspension concentrate formulation for water-soluble compounds” (FMC Corporation, priority 2006, dated 2021)
